Measured values: PMC7092479, “Antiviral activity of silymarin in comparison with baicalein against EV-A71” (BMC Complementary Medicine and Therapies, 2020)
Values after ≈ are worked out from the molar mass of the structure shown. Like-named read-outs stand apart in the source and are kept apart here. Blank lines part the entries; values can stand above or below the compound they belong to.

Legend:
[1] = system: Vero cells; experiment: Cytotoxicity assay (MTS) in Vero cells
Description: (§1) CellTiter 96® AQueous One Solution Cell Proliferation MTS [3-(4,5-dimethylthiazol-2-yl)-5-(3-carboxymethoxyphenyl)-2-(4-sulfophenyl)-2H-tetrazolium] assay kit (Promega, Madison, WI, USA) was used to evaluate the cytotoxicity of the three flavonoids according to the manufacturer’s instruction. Briefly, RD or Vero cells were seeded overnight in 96 well plates with a density of 2 × 10^5 cells/mL. Cells were then treated with various concentrations of silymarin (6.25, 12.5, 25, 50,100 and 200 μg/mL), baicalein (1.68, 3.37, 6.75, 13.5, 27, 54 and 108, μg/mL) and baicalin (2.78, 5.57, 11.15, 22.31, 44.63 and 89.26 μg/mL) prepared in maintenance media. RD or Vero cells without test compounds served as a negative control. The plate was further incubated for 24 h at 37 °C. An aliquot of 20 μL of MTS solution was added to each well and the plate was incubated for 1 h at 37 °C. The absorbance was measured at 490 nm with an Infinite 200 Pro Multiplate Reader (Tecan, Männdedorf, Switzerland) (Supplementary Figure S1). The half-maximal cytotoxic concentration (CC50) and 10% cytotoxic concentration (CC10) for each flavonoid were determined using GraphPad Prism software, version 7 (GraphPad Software, Calif, USA).

[2] = system: EV-A71; experiment: microbe, parasite or virus in culture; type: cell-based, Enterovirus 71 (EV-A71) strain 41 (5865/SIN/000009); conditions: for inhibition at 54 µg/mL: EVA71, RD, read-out: Inhibition of EV-A71 viral infectivity, virucidal assay
Description: (§2) The plaque assay was performed using the method described by Tan et al. (2012) with minor modifications. Briefly, 6 well plates with 6 × 10^5 RD cells/mL were prepared and incubated to grow overnight at 37 °C. The supernatants collected from antiviral assays were serially diluted (10-folds) and the cell monolayer was infected with each dilution. The plates were incubated at 37 °C for 1 h. After removal of the inoculum, 1.5–2 mL of 0.9% of high viscosity carboxy methyl cellulose (CMC) (Sigma Aldrich, MO, USA) with 2% FBS in DMEM (overlay media) were added to each well. After incubation for 3 days, the overlaid media was removed. The cells were washed three times with phosphate buffered saline (PBS), fixed with 3.7% formaldehyde and stained with 0.5% crystal violet. The plaques were counted manually against a white background and pictures were taken using the CTL Immunospot® S6 Versa (Cleveland, OH, USA). All experiments were performed as three independent replicates.
(§3) RNA extractions were performed using the QIAamp ViralRNA mini kit (Qiagen, Hilden, Germany) according to the manufacturer’s instructions. TaqMan® Fast virus 1-step master mix (ABI, Carlsbad, Calif, USA) was used to carry out qRT-PCR in the CFX96 TouchTM Real-Time PCR Detection System (Bio-Rad, Calif, USA). The cDNA synthesis was carried out by reverse transcription for 5 min at 50 °C and subsequently amplified for 40 cycles at 95 °C for 3 s, 60 °C for 30 s. A standard graph was plotted using serial dilutions of the standard viral stock. The threshold cycle value (Cq) was calculated using the default setting of the machine. All experiments were performed in triplicates.
RD cells (2 × 10^4/well) were grown overnight in wells of a 96 well plate. The virus was pre-treated with each of the flavonoids for 1 h at MOI of 1 (pfu/ml = 2 × 10^4/0.1 mL). Cells were infected with the pre-treated virus-flavonoid-mixture. The inoculum was allowed to incubate with the RD cells at 37 ° for 1 h. After 1 h, the inoculum was removed, cells were washed with PBS and maintenance media was replaced. After 24 h, the supernatant was collected and infectious viral titers were quantified using the plaque assay. RNA copy number was determined by qRT-PCR [21] [Supplementary Figure S2(a)].

[3] = system: EV-A71; set-up: method as in Zhang et al. (2014) [27]; conditions: cells treated with 30 μM prior to EV-A71 infection; ref Zhang et al. (2014) [27]; cited from earlier work
[4] = Cytotoxicity assay (MTS) in Vero cells; conditions: African green monkey, Vero cells
Description: as §1

[5] = system: EV-A71; experiment: Post-infection assay; type: cell-based, Enterovirus 71 (EV-A71) strain 41 (5865/SIN/000009); conditions: added 1 h after RD cells were infected, data not shown
Description: as §2, with “All experiments were performed as three independent replicates.” left out
RNA extractions were performed using the QIAamp ViralRNA mini kit (Qiagen, Hilden, Germany) according to the manufacturer’s instructions. […] The threshold cycle value (Cq) was calculated using the default setting of the machine. […]
RD cells (2 × 10^4/well) were grown overnight in wells of a 96 well plate. […] After 24 h, the supernatant was collected and infectious viral titers were quantified using the plaque assay. RNA copy number was determined using qRT-PCR [21] […]

[6] = system: EV-A71; experiment: Cell protection assay (RD cells pre-treated); type: cell-based, Enterovirus 71 (EV-A71) strain 41 (5865/SIN/000009); conditions: 54 μg/mL; for inhibition at 54 µg/mL: Enterovirus A, EVA71, RD, read-out: Inhibition of EV-A71 viral infectivity, cell protection assay
Description: as §2, §3
RD cells (2 × 10^4/well) were seeded overnight in each well within a 96 well plate. Cells were treated with different concentrations of a flavonoid for 1 h at 37 °C. After incubation, flavonoid containing media was removed and cells were washed with PBS. […] The supernatant was collected after 24 h and the infectious viral titers were quantified using the plaque assay. RNA copy number was determined using qRT-PCR [21] […]

[7] = system: EV-A71; experiment: microbe, parasite or virus in culture; type: cell-based, Enterovirus 71 (EV-A71) strain 41 (5865/SIN/000009); conditions: for inhibition at 54 µg/mL: EVA71, 54 μg/mL, read-out: Inhibition of EV-A71 viral infectivity, comprehensive assay
Description: as §2, §3
RD cells (2 × 10^4/well) were grown overnight in wells of a 96 well plate. A monolayer of RD cells was pre-treated with various concentrations of a flavonoid for 1 h and incubated at 37 °C. Simultaneously, the virus at MOI of 1 (pfu/ml = 2 × 10^4/0.1 mL) was pre-treated with the same concentrations of the flavonoid for 1 h at 37 °C. After incubation, flavonoid containing media was removed and the RD cells were washed with PBS. The flavonoid-treated virus was added to the pre-treated RD cells for 1 h at 37 °C. The inoculum was removed, RD cells were washed with PBS and replaced with the maintenance media (DMEM supplemented with 2% FBS). After 24 h, the supernatant was collected and infectious viral titers were quantified using the plaque assay. RNA copy number was determined using qRT-PCR [21] [Supplementary Figure S2(e)].

[8] = system: EV-A71; experiment: Time course assay for virucidal activity; type: cell-based, Enterovirus 71 (EV-A71) strain 41 (5865/SIN/000009); conditions: 54 μg/mL, 60 min co-incubation with EV-A71 at 37 °C, plaque assay
Description: as §2, with “After removal of the inoculum, 1.5–2 mL of 0.9% of high viscosity carboxy methyl cellulose (CMC) (Sigma Aldrich, MO, USA) with 2% FBS in DMEM (overlay media) were added to each well.” left out, “replicates. RD cells (2 × 10^4/well) were grown overnight in wells of a 96 well plate. […] Cells were infected with the pre-treated virus-flavonoid-mixture and allowed to incubate with the RD cells at 37 °C for 1 h. After 1 h, the inoculum was removed, cells were washed with PBS and maintenance media was added. After 24 h, the supernatant was collected and infectious viral titers were quantified using the plaque assay.” for “replicates.”

[9] = Cytotoxicity assay (MTS) in RD cells; conditions: human, CC50 (half maximal cytotoxic concentration), 24 h, MTS assay
Description: as §1

[10] = system: RD cells; experiment: Cytotoxicity assay (MTS) in RD cells
Description: as §1

[11] = system: RD cells; set-up: method as in Li et al. (2015) [16]; conditions: ref Li et al. (2015) [16]; cited from earlier work

Compound: Silymarin
CC10 [1]: 314.2 ± 0.06 µg/mL
CC50 [1]: 753 ± 0.17 µg/mL
Concentration up to which no significant cytotoxicity was shown [1]: ≤ 200 µg/mL
Virucidal Assay SI (CC50/IC50) [2]: 10.53

IC50 ([7]; Enterovirus A, EVA71, plaque assay, RD cells and virus both pre-treated 1 h, read-out: Comprehensive Assay IC50): 2.27 ± 4.93 µg/mL (≈ 8.4 µM)
Compound: O=c1cc(-c2ccccc2)oc2cc(O)c(O)c(O)c12 [Baicalein]
Effect as a prophylactic agent against EV-A71 [3]: non-effective
CC50 at 24 h [4]: 828.7 ± 0.93 µg/mL (≈ 3070 µM)
CC10 ([1]; Vero cells, 24 h, MTS assay): 148.9 ± 0.25 µg/mL (≈ 551 µM)
Inhibition of EV-A71 post-infection [5]: non-inhibitory
Inhibition of EV-A71 viral infectivity, cell protection assay ([6]; plaque assay): no inhibition
inhibition at 54 µg/mL ([6]; plaque assay): 2.2%
inhibition at 54 µg/mL ([6]; qRT-PCR): 0%
Comprehensive Assay SI (CC50/IC50) [7]: 185.6
inhibition at 54 µg/mL ([7]; Enterovirus A, plaque assay): 89.4%
inhibition at 54 µg/mL ([7]; Enterovirus A, qRT-PCR (RNA copy number)): 83%
Virucidal effects against EV-A71 (time course) [8]: 60%
CC50 at 24 h ([9]; extrapolated value, above the tested concentration of 108 μg/mL): 421.5 ± 3.23 µg/mL (≈ 1560 µM)
CC10 (10% cytotoxic concentration) ([10]; 24 h, MTS assay): 90.93 ± 3.94 µg/mL (≈ 336 µM)
CC10 (10% cytotoxic concentration) ([10]; 24 h, MTS assay, listed as baicalein): 90.93 µg/mL (≈ 336 µM)
Concentration up to which no significant cytotoxic effects were observed ([10]; 24 h incubation): ≤ 54 µg/mL
Virucidal Assay SI (CC50/IC50) [2]: 13.64
Inhibition of EV-A71 viral infectivity, virucidal assay ([2]; 54 μg/mL, plaque assay): 65.0%
inhibition at 54 µg/mL ([2]; Enterovirus A, 54 μg/mL, plaque assay): 64%
inhibition at 54 µg/mL ([2]; Enterovirus A, 54 μg/mL, qRT-PCR (RNA copy number)): 78.8%
IC50 ([2]; Enterovirus A, EVA71, plaque assay, RD cells, virus pre-treated 1 h, MOI 1, read-out: Virucidal Assay IC50): 30.9 ± 5.5 µg/mL (≈ 114 µM)

Compound: O=C(O)[C@H]1O[C@@H](Oc2cc3oc(-c4ccccc4)cc(=O)c3c(O)c2O)[C@H](O)[C@@H](O)[C@@H]1O [Baicalin, reference compound]
CC50 at 24 h [4]: 30.47 ± 0.06 µg/mL (≈ 68.3 µM)
CC10 ([1]; Vero cells, 24 h, MTS assay): 1.718 ± 0.16 µg/mL (≈ 3.85 µM)
CC50 at 24 h [9]: 42.2 µg/mL (≈ 94.5 µM)
CC10 (10% cytotoxic concentration) ([10]; 24 h, MTS assay): 5.46 ± 5.02 µg/mL (≈ 12.2 µM)
CC50 (half maximal cytotoxic concentration) ([10]; 24 h, MTS assay): 42.21 ± 4.15 µg/mL (≈ 94.6 µM)
CC10 (10% cytotoxic concentration) ([10]; 24 h, MTS assay, listed as baicalin): 5.46 µg/mL (≈ 12.2 µM)
CC50 [11]: 823.53 µg/mL (≈ 1840 µM)
